# Source: patent US9271991B2, “Trimegestone (TMG) for treatment of preterm birth” (Dignity Health, priority 2010, dated 2016)
# “And” between values parts separate entries of the source, which are not always exact repeats. Identical values can stand only once. “Also recorded” adds a separate entry of the source.
# Experiments:
# [1] = test system: offspring of TMG-treated rats; experiment: Fertility of offspring of TMG-treated pregnant rats; type: in vivo, rat; conditions: offspring bred at 5 months with untreated partners, n=6 per sex
# Text: To determine the effects of TMG on fertility the following procedure was followed. When pups from TMG-treated pregnant rats were of breeding age (5 months) the females were placed with normal (untreated) males for 6 days. Similarly, male pups from TMG-treated rats were placed with normal (untreated) females for 6 days.
# glucocorticoid receptor = target: T1, glucocorticoid receptor (Homo sapiens, UniProt P04150); conditions: cited from earlier work
# T1 sequence (P04150 1-777): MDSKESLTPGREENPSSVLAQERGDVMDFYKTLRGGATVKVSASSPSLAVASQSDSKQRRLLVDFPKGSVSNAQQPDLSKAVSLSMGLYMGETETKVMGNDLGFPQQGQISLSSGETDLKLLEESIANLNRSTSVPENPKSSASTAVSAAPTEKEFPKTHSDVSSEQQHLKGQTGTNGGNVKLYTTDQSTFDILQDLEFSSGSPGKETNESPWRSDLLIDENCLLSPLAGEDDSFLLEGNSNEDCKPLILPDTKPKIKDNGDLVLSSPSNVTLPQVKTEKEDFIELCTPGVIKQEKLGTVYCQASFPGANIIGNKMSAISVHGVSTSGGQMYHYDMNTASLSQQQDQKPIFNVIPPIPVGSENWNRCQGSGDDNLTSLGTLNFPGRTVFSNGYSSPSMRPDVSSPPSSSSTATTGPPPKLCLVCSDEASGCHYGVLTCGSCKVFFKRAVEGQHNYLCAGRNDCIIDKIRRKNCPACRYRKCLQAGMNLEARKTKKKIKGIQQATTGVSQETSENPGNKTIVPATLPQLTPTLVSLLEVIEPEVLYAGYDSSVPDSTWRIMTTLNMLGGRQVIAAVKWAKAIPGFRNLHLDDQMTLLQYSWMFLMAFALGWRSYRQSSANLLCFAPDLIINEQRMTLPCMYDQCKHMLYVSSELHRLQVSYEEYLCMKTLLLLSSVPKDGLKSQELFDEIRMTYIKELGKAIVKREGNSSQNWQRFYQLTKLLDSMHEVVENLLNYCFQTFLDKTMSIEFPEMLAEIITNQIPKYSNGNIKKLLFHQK
# [2] = test system: estrogenic activity in the uterine endometrium; conditions: in vivo; cited from earlier work
# [3] = test system: rat pups of treated pregnant rats; experiment: Sex of pups / fetuses of TMG-treated pregnant rats; type: in vivo
# Procedure: To determine the effects of TMG on progeny sex ratios, pregnant rats (N=9 per group) were treated daily beginning on day 13 of gestation with TMG (in benzyl benzoate+castor oil, vehicle) or with vehicle only. […] Pups were then placed with surrogate mother also on day 22 of gestation whose pups were sacrificed.
# As described, the sex of the pups was evaluated 21 days post-partum by examining external genitalia as well as distance between rectum and genitalia.
# estrogen receptor = target: T2, estrogen receptor (Homo sapiens, UniProt P03372); conditions: cited from earlier work
# T2 sequence (P03372 1-595): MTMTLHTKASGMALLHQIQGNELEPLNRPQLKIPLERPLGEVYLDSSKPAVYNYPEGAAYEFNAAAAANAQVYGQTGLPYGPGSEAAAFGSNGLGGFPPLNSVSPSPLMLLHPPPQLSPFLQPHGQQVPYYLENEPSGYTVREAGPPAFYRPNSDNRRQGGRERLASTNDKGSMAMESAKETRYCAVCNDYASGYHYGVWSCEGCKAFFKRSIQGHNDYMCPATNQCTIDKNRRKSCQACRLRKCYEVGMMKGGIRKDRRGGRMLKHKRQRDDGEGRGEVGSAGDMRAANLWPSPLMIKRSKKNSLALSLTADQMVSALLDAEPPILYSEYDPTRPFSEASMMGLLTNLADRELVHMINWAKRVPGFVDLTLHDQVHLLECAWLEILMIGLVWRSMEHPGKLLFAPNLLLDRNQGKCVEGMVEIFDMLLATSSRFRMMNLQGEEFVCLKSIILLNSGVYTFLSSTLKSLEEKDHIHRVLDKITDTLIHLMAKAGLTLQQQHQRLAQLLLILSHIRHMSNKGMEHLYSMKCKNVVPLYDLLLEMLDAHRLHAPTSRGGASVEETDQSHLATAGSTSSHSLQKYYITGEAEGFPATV
# [4] = species not stated; cited from earlier work
# [5] = test system: pregnant guinea pigs (preterm delivery); experiment: PGE2-induced preterm delivery in pregnant guinea pigs; type: in vivo, Hartley guinea pigs; conditions: sacrifice day 48
# Text: Pregnant guinea pigs, another model of pregnancy are also utilized as they more closely resemble the endocrine control of human pregnancy with progesterone levels in pregnancy maintained by the placenta as opposed to the ovaries, which is observed in pregnant rats.
# Pregnant Hartley guinea pigs arrived at our facilities at 31-35 days gestation and housed in pairs, with free access to food and water and also maintained on a constant 12-hour light-dark cycle. The animals were euthanized with a combination of xylazine (Gemini; Burns Veterinary Supply Inc, Rockville Center, N.Y.) and ketamine HCL (Ketaset; Fort Dodge Laboratories Inc, Fort Dodge, Iowa). All procedures were approved by the Animal Care and Use Committee of the St. Joseph's Hospital and Medical Center in Phoenix, Ariz.
# Pregnant guinea pigs (N=4-6 per group) were allocated into 4 groups (Vehicle (v) only, TMG only, PGE2 only, PGE2+TMG). PGE2 administration (3 mg/day s.c, v=saline) began daily on day 46 to day 47 of gestation. TMG administration (4 mg/day s.c v=BB:CO) began daily on day 44 until day 47 of gestation. All guinea pigs were sacrificed on day 48.
compound,measurement,setting,value
"C[C@H](O)C(=O)[C@@]1(C)CC[C@H]2[C@@H]3CCC4=CC(=O)CCC4=C3CC[C@@]21C [TMG, trimegestone]",fertility of male and female offspring of treated rats,[1],not compromised
same,affinity to the glucocorticoid receptor,glucocorticoid receptor,low affinity
same,antagonism of estrogenic activity in the uterine endometrium versus reference progestins,[2],highest level of estrogenic activity antagonism; also recorded: most potent antagonist of estrogenic activity
same,masculinizing or feminizing effects on the fetuses,"[3]; fetuses of treated rats, treatment from day 13 of pregnancy",lacks masculinization or feminization effects; also recorded: no masculinizing or feminizing effects
same,ratio of male to female pups versus vehicle control,"[3]; pregnant rats treated from day 13 of gestation, N=9",no significant difference; also recorded: non-significant differences
same,affinity for the estrogen receptor,estrogen receptor,no measurable affinity
same,half-life,[4],17 h
same,"guinea pigs delivered (preterm) / treated, substance alone","[5]; TMG 4 mg/day s.c. days 44-47, PGE2 3 mg/day days 46, 47",1/4
same,"guinea pigs delivered (preterm) / treated, TMG plus PGE2",[5]; TMG 4 mg/day s.c. days 44-47 and PGE2 3 mg/day days 46-47,None and 2/6
